The values that follow come from patent publication US20230027361A1, “METTL3 MODULATORS” (priority 2019, published 2023).

Experiment [1] has as its target METTL1/WDR4 (Homo sapiens, UniProt Q9UBP6). Kind of experiment: METTL1 Assay (METTL1 biochemical assay). Here is the method: Assays were performed in a 25 μl-volume in 384-well V-bottom polypropylene microplates (Greiner Bio-One, cat. No. 781280) at ambient temperature. Optimized 1× assay buffer was 20 mM HEPES pH 7.5, 50 mM KCl, 250 μM MgCl2, 1 mM DTT, 0.01% Tween, 0.01% BSG, 0.004 U/μl RNAseOUT (cat. No. 10777019, ThermoFisher Scientific, Waltham, Mass.). For compound screening METTL1/WDR4 (final concentration, f.c.=6.25 nM) was added using a Multidrop Combi (ThermoFisher Scientific, Waltham, Mass.) and preincubated for 5 min. Reactions were started by adding 3′ biotinylated RNA ([…]-biotin) (f.c.=25 nM) and 3H-SAM (f.c.=60 nM) substrates. Reactions proceeded for 20 minutes and were quenched with excess non-radioactive SAM (f.c.=15 μM). The reactions were then transferred to streptavidin-coated flashplates and incubated for 2 hours at 25° C. Following two washing cycles with 0.1% Tween-20, the plates were sealed and read on a TopCount (PerkinElmer, Waltham, Mass.) plate-based scintillation counter. For determination of kinetic parameters, reaction times were optimized so that measurements were taken during the initial velocity phase of the reaction.

Experiment [2] concerns the target METTL3/METTL14 (Homo sapiens, UniProt Q86U44). Kind of experiment: METTL3-14 Standard Enzyme Assay (METTL3 biochemical assay). Here is the method:
Assays were performed in a 25 μl-volume in 384-well V-bottom polypropylene microplates (Greiner Bio-One, cat. No. 781280) at ambient temperature. Optimized 1× assay buffer was 20 mM HEPES pH 7.5, 50 mM KCl, 250 μM MgCl2, 1 mM DTT, 0.01% Tween, 0.01% BSG, 0.004 U/μl RNAseOUT (cat. No. 10777019, ThermoFisher Scientific, Waltham, Mass.). For compound screening METTL3/METTL14 (final concentration, f.c.=2.5 nM) was added using a Multidrop Combi (ThermoFisher Scientific, Waltham, Mass.) and preincubated for 5 min. Reactions were started by adding 3′ biotinylated RNA ([…]-biotin) (f.c.=100 nM) and 3H-SAM (f.c.=100 nM) substrates. Reactions proceeded for 30 minutes and were quenched with excess non-radioactive SAM (f.c.=15 μM). The reactions were then transferred to streptavidin-coated flashplates and incubated for 2 hours at 25° C. Following two washing cycles with 0.1% Tween-20, the plates were sealed and read on a TopCount (PerkinElmer, Waltham, Mass.) plate-based scintillation counter. For determination of kinetic parameters, reaction times were optimized so that measurements were taken during the initial velocity phase of the reaction.

Experiment [3] deals with PRMT5-MEP50 (Homo sapiens, UniProt O14744). The experiment can be described thus: PRMT5 Assay (PRMT5 biochemical assay). Here is the method:
Assays were performed in a 25 μl-volume in 384-well V-bottom polypropylene microplates (Greiner Bio-One, cat. No. 781280) at ambient temperature. Optimized 1× assay buffer was 20 mM Tris-HCl pH 8.0, 1 mM DTT, […]. For compound screening PRMT5-MEP50 (final concentration, f.c.=2.5 nM) was added using a Multidrop Combi (ThermoFisher Scientific, Waltham, Mass.) and preincubated for 5 min. Reactions were started by adding 3′ biotinylated histone H4 peptide acetylated on serine 1 (Ac-[…]-Biotin) (f.c.=100 nM) and 3H-SAM (f.c.=250 nM) substrates. Reactions proceeded for 60 minutes and were quenched with excess non-radioactive SAM (f.c.=15 μM). The reactions were then transferred to streptavidin-coated flashplates and incubated for 2 hours at 25° C. Following two washing cycles with 0.1% Tween-20, the plates were sealed and read on a TopCount (PerkinElmer, Waltham, Mass.) plate-based scintillation counter. For determination of kinetic parameters, reaction times were optimized so that measurements were taken during the initial velocity phase of the reaction.

Setting [4] is: read-out: METTL1 IC50; METTL1 biochemical assay.
[5] abbreviates: METTL3 biochemical assay, read-out: METTL3 IC50.
Setting [6] is: PRMT5 biochemical assay, read-out: PRMT5 IC50.
The mark [7] stands for this setting: METTL1 biochemical assay; read-out: METTL1 IC50.

Like-named read-outs stand apart in the source and are kept apart here.

As usually defined, the IC50 is the concentration at which inhibition is half-maximal.

Chain of PRMT5-MEP50 (O14744 whole entry): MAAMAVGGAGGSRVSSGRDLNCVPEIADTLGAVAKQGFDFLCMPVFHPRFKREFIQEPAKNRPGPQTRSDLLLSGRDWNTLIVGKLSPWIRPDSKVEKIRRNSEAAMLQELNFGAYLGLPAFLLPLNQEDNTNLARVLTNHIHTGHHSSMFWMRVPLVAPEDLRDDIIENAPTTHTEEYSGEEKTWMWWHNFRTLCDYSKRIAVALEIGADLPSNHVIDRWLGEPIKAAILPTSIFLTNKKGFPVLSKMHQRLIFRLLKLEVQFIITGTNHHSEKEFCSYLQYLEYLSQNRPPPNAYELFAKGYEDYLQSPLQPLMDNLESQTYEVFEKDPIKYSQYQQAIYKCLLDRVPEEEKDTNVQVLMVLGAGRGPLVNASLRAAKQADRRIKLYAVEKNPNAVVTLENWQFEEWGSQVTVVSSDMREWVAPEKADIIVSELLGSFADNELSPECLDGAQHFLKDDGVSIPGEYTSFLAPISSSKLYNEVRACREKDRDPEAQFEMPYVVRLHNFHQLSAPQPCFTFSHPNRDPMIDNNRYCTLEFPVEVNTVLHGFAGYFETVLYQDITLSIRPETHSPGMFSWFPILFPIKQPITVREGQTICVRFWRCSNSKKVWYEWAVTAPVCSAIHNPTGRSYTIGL
Chain of PRMT5-MEP50 (Q9BQA1 whole entry partner): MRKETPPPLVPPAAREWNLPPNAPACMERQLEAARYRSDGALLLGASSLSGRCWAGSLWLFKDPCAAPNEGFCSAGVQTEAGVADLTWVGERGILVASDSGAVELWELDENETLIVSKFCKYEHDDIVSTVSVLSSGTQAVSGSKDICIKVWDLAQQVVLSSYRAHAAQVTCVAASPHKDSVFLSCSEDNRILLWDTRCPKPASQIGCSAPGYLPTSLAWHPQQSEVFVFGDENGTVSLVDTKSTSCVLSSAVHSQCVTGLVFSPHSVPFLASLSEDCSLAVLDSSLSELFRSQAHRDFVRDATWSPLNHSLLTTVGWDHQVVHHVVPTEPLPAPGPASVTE
Chain of METTL1/WDR4 (Q9UBP6 whole entry, species assumed): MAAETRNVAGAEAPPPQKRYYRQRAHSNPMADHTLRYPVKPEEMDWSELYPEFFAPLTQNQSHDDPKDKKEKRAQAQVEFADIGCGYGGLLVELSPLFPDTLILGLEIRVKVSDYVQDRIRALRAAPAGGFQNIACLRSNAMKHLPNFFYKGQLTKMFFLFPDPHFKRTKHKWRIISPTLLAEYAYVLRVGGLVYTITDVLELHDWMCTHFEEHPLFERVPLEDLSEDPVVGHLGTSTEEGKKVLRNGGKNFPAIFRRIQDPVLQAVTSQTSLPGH
Chain of METTL1/WDR4 (P57081 whole entry partner, species assumed): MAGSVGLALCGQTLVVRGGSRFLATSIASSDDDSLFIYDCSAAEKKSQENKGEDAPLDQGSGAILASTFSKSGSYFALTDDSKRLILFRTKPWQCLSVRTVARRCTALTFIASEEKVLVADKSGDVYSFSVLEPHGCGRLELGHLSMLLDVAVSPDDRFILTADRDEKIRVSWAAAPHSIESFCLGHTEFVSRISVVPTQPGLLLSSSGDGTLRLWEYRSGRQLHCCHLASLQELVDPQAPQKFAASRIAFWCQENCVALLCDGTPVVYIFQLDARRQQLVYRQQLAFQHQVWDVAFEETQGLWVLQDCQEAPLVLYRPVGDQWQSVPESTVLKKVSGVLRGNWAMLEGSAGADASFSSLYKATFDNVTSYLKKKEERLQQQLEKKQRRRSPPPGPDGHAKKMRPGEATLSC
Chain of METTL3/METTL14 (Q86U44 whole entry, species assumed): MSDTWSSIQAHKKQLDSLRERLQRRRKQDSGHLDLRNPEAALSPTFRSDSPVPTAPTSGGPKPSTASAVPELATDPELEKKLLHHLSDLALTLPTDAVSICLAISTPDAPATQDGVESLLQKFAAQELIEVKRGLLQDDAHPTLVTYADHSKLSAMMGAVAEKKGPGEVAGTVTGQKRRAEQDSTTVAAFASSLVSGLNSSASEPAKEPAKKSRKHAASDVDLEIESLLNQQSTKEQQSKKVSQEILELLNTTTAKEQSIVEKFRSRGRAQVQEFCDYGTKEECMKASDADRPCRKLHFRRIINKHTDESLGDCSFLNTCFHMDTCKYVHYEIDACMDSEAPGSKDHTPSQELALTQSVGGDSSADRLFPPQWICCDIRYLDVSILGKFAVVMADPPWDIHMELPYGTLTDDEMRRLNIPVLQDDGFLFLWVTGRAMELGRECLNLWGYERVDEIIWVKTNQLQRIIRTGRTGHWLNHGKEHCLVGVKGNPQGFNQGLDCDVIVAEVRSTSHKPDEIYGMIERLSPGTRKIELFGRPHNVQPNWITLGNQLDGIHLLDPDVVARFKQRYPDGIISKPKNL
Chain of METTL3/METTL14 (Q9HCE5 whole entry partner, species assumed): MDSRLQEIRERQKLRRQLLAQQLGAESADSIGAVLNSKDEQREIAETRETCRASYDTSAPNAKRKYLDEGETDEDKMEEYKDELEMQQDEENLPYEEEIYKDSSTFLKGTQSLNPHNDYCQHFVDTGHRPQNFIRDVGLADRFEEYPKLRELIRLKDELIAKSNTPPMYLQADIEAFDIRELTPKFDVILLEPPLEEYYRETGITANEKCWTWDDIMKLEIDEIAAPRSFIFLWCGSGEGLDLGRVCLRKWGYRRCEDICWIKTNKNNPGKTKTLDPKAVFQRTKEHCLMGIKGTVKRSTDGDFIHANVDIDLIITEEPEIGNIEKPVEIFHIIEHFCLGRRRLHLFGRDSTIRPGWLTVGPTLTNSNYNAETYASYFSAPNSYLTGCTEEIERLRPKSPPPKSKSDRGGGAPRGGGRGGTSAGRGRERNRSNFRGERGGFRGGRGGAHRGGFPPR

In the case of `Nc1ccc2ccc(CC[C@H]3C[C@@H](n4cc([C@H]5CCOC5)c5c(N)ncnc54)[C@H](O)[C@@H]3O)cc2n1` [I-53], the results for the IC50 in experiment [1] (setting [4]), in experiment [2] (setting [5]) and in experiment [3] (setting [6]) were more than 1 µM, 0.1 to 1 µM and less than 0.01 µM, respectively.
As for `Nc1cc2cc(CC[C@H]3C[C@@H](n4ccc5c(N)ncnc54)[C@H](O)[C@@H]3O)ccc2cn1` [I-100], the IC50 in experiment [1] (setting [4]) is more than 1 µM; in experiment [2] (setting [5]) it was more than 1 µM; in experiment [3] (setting [6]), 0.01 to 0.1 µM.
For the molecule `Nc1ncnc2c1ccn2[C@@H]1C[C@H](CCc2ccc3ccccc3c2)[C@@H](O)[C@H]1O` [I-136], the IC50 in experiment [1] (setting [4]) and in experiment [3] (setting [6]) was more than 1 µM throughout.
Take `Nc1ncnc2c1ccn2[C@@H]1O[C@H](COc2ccc3ccc(N4CCOCC4)nc3c2)[C@@H](O)[C@H]1O` [I-77]: the IC50 is more than 1 µM in experiment [1] (setting [4]), 0.01 to 0.1 µM in experiment [2] (setting [5]) and 0.1 to 1 µM in experiment [3] (setting [6]).
Regarding `Nc1cccc2ccc(CC[C@H]3C[C@@H](n4ccc5c(N)ncnc54)[C@H](O)[C@@H]3O)cc12` [I-110], the results for the IC50 in experiment [1] (setting [4]), in experiment [2] (setting [5]) and in experiment [3] (setting [6]) were more than 1 µM, more than 1 µM and 0.1 to 1 µM, respectively.
`CCCNc1ncnc2c1ccn2[C@@H]1C[C@H](CCc2ccc3ccc(N)nc3c2)[C@@H](O)[C@H]1O` [I-102]: the IC50 was more than 1 µM in experiment [1] (setting [4]), more than 1 µM in experiment [2] (setting [5]) and less than 0.01 µM in experiment [3] (setting [6]).
On to `Nc1ccc2ccc(CO[C@H]3C[C@@H](n4ccc5c(N)ncnc54)[C@H](O)[C@@H]3O)cc2n1` [I-139], for which the IC50 is more than 1 µM in experiment [1] (setting [4]), less than 0.01 µM in experiment [2] (setting [5]) and less than 0.01 µM in experiment [3] (setting [6]).
`CNc1ccc2ccc(OC[C@H]3O[C@@H](n4cc(Br)c5c(N)ncnc54)C[C@@H]3O)cc2n1` [I-47]: the IC50 in experiment [1] (setting [4]) was more than 1 µM; in experiment [2] (setting [5]), less than 0.01 µM; in experiment [3] (setting [6]), 0.1 to 1 µM.
The like results for `Nc1ccc2ccc(CC[C@H]3C[C@@H](n4cc(Br)c5c(N)ncnc54)[C@H](O)[C@@H]3O)cc2n1` [I-107] were, in that order, more than 1 µM, 0.01 to 0.1 µM and less than 0.01 µM.
For `Nc1ncnc2c1ccn2[C@@H]1C[C@H](CCc2ccc3ccc(NCc4ccccc4)nc3c2)[C@@H](O)[C@H]1O` [I-121] the same measures were more than 1 µM, 0.1 to 1 µM and less than 0.01 µM.
Take `Nc1ccc2ccc(NC[C@H]3C[C@@H](n4ccc5c(N)ncnc54)[C@H](O)[C@@H]3O)cc2n1` [I-109]: the IC50 was more than 1 µM in experiment [1] (setting [4]), more than 1 µM in experiment [2] (setting [5]) and 0.01 to 0.1 µM in experiment [3] (setting [6]).
Regarding `CNc1ccc2ccc(OC[C@H]3O[C@@H](n4cc(-c5cn(C(C)C)cn5)c5c(N)ncnc54)[C@@H](F)[C@@H]3O)cc2n1` [I-233], the IC50 in experiment [1] (setting [7]) was more than 1 µM; in experiment [2] it was 0.01 to 0.1 µM; in experiment [3], more than 1 µM.
For `Nc1ccc2ccc(OC[C@H]3C[C@@H](n4ccc5c(NCCc6ccccc6)ncnc54)[C@H](O)[C@@H]3O)cc2n1` [I-91], the IC50 was more than 1 µM in experiment [1] (setting [7]), more than 1 µM in experiment [2] (setting [5]) and less than 0.01 µM in experiment [3] (setting [6]).
Regarding `Cc1cn([C@@H]2O[C@H](COc3ccc4ccc(NCC5CC5)nc4c3)[C@@H](O)[C@H]2O)c2ncnc(N)c12` [I-20], the IC50 was more than 1 µM in experiment [1] (setting [4]), more than 1 µM in experiment [2] (setting [5]) and 0.1 to 1 µM in experiment [3] (setting [6]).
Consider `Nc1ccc2cc(CC[C@H]3C[C@@H](n4ccc5c(NCCc6ccccc6)ncnc54)[C@H](O)[C@@H]3O)ccc2n1` [I-97], for which the IC50 in experiment [1] (setting [4]) is more than 1 µM; in experiment [2] (setting [5]) it was more than 1 µM; in experiment [3] (setting [6]), 0.1 to 1 µM.
`CCc1cc(N)c2ccc(OC[C@H]3O[C@@H](n4cc(-c5ccn(C)n5)c5c(N)ncnc54)[C@@H](F)[C@@H]3O)cc2n1` [I-145]: the IC50 in experiment [1] (setting [7]) was more than 1 µM; in experiment [2] (read-out: METTL3 IC50, METTL3 biochemical assay), less than 0.01 µM; in experiment [3] (read-out: PRMT5 IC50, PRMT5 biochemical assay), 0.1 to 1 µM.
For `Cc1cc2c(N)ncnc2n1[C@@H]1C[C@H](COc2ccc3ccc(N)nc3c2)[C@@H](O)[C@H]1O` [I-56], the IC50 in experiment [1] (setting [4]) was more than 1 µM; in experiment [2] (setting [5]), more than 1 µM; in experiment [3] (setting [6]) it was less than 0.01 µM.
As for `Nc1ccc2ccc(OC[C@H]3C[C@@H](n4ccc5c(N)ncnc54)[C@H](O)[C@@H]3O)cc2n1` [I-124], the half-inhibitory concentration (IC50) in experiment [1] (setting [4]) was more than 1 µM; in experiment [2] (setting [5]), 0.1 to 1 µM; in experiment [3] (setting [6]), less than 0.01 µM.
For the molecule `CCCNc1ccc2ccc(CC[C@H]3C[C@@H](n4ccc5c(N)ncnc54)[C@H](O)[C@@H]3O)cc2n1` [I-120], the IC50 in experiment [1] (setting [4]) is more than 1 µM; in experiment [3] (setting [6]), less than 0.01 µM.
As for `Cc1cc2c(N)ncnc2n1[C@@H]1C[C@H](CCc2ccc3ccc(N)nc3c2)[C@@H](O)[C@H]1O` [I-65], the IC50 is more than 1 µM in experiment [1] (setting [4]), more than 1 µM in experiment [2] (setting [5]) and less than 0.01 µM in experiment [3] (setting [6]).
`Nc1ccc2ccc(CC[C@H]3C[C@@H](n4cc([C@@H]5CCOC5)c5c(N)ncnc54)[C@H](O)[C@@H]3O)cc2n1` [I-49]: the IC50 in experiment [1] (setting [4]) is more than 1 µM; in experiment [2] (setting [5]), 0.1 to 1 µM; in experiment [3] (setting [6]), less than 0.01 µM.
The like results for `CNC(=O)Nc1cccc(CC[C@H]2C[C@@H](n3ccc4c(N)ncnc43)[C@H](O)[C@@H]2O)c1` [I-99] were, in that order, more than 1 µM, more than 1 µM and 0.1 to 1 µM.
For `Cc1cn([C@@H]2O[C@H](COc3ccc4ccc(N)nc4c3)[C@@H](O)[C@H]2O)c2ncnc(N)c12` [I-15] the same measures were more than 1 µM, more than 1 µM and 0.1 to 1 µM.
In the case of `CNc1ccc2ccc(OC[C@H]3O[C@@H](n4cc(C5CCC(F)(F)CC5)c5c(N)ncnc54)[C@H](O)[C@@H]3O)cc2n1` [I-4], the values for the IC50 in experiment [1] (setting [4]), in experiment [2] (setting [5]) and in experiment [3] (setting [6]) were more than 1 µM, less than 0.01 µM and 0.01 to 0.1 µM, respectively.
Consider `Nc1ccc2ccc(OC[C@H]3O[C@@H](n4ccc5c(N)ncnc54)[C@H](O)[C@@H]3O)cc2n1` [I-80], for which the concentration for half-maximal inhibition (IC50) in experiment [1] (setting [4]) was more than 1 µM; in experiment [2] (setting [5]), 0.01 to 0.1 µM; in experiment [3] (setting [6]), less than 0.01 µM.
On to `Nc1ncnc2c1ccn2[C@@H]1C[C@H](CCc2ccc3ccc(NCC4CC4)nc3c2)[C@@H](O)[C@H]1O` [I-132], for which the IC50 in experiment [1] (setting [7]) was more than 1 µM; in experiment [3] (setting [6]) it was less than 0.01 µM.
For `Nc1ccc2ccc(CC[C@H]3C[C@@H](n4ccc5c(NCCc6ccccc6)ncnc54)[C@H](O)[C@@H]3O)cc2n1` [I-134], the 50% inhibitory concentration (IC50) in experiment [1] (setting [4]) was more than 1 µM; in experiment [3] (setting [6]), less than 0.01 µM.
For `Nc1ncnc2c1ccn2[C@@H]1C[C@H](CCc2ccc3cc(Br)cnc3c2)[C@@H](O)[C@H]1O` [I-137] the same measures were more than 1 µM and less than 0.01 µM.
The like results for `Cc1cn([C@@H]2C[C@H](CCc3ccc4ccc(N)nc4c3)[C@@H](O)[C@H]2O)c2ncnc(N)c12` [I-66] were, in that order, more than 1 µM and less than 0.01 µM.
For `Nc1ncnc2c1ccn2[C@@H]1C[C@H](CCc2ccc3ccncc3c2)[C@@H](O)[C@H]1O` [I-131], the IC50 in experiment [1] (setting [4]) was more than 1 µM; in experiment [3] (setting [6]) it was 0.01 to 0.1 µM.
In the case of `CN(C)C(=O)c1cn([C@@H]2O[C@H](COc3ccc4ccc(N5CCC5)nc4c3)[C@@H](O)[C@@H]2F)c2ncnc(N)c12` [I-216], the IC50 in experiment [2] lay in the range of 0.01 to 0.1 µM; in experiment [3] it was 0.1 to 1 µM.
In the case of `Nc1ncnc2c1ccn2[C@@H]1C[C@H](CCc2ccc3cccnc3c2)[C@@H](O)[C@H]1O` [I-133], the IC50 in experiment [1] (setting [7]) is more than 1 µM; in experiment [3] (setting [6]), less than 0.01 µM.
For the molecule `Nc1cc(OC[C@H]2O[C@@H](n3ccc4c(N)ncnc43)[C@@H](F)[C@@H]2O)ccc1C(=O)N1CCNCC1` [I-175], the IC50 in experiment [2] (setting [5]) and in experiment [3] (setting [6]) was more than 1 µM in each case.
